Common to all, as to assay: Antiviral activity in deCIPhR cellular system (replicative phenotyping, β-galactosidase indicator cell line)
Type in all cases: cell-based
Holding throughout (conditions): Human immunodeficiency virus 1

One experiment deals with HIV-1 mutant GQ (MDR). The text has this:
(§1) Fully infectious virus HIV-1 was produced from cloned proviral DNA reference coding either for wild-type HIV-1 or from drug-resistant virus following transfection of proviral DNA into recipient mammalian cells. Subsequent to viral protein expression and particle formation, culture supernatant was harvested and used to infect an indicator cell line. This latter cell line expresses all necessary receptors and co-receptors for HIV infection as well as the bacterial gene LacZ coding for β-galactosidase under the control of the HIV-1 long terminal repeat. In this system, amount of β-galactosidase is directly proportional to the extent of viral replication. Activity of β-galactosidase is assayed in presence of a colorless substrate which upon enzymatic conversion yields a yellow product absorbing at 405 nm. Next, variation in colorimetric readout in presence of test compounds was translated in percent viral inhibition following normalization according to absorbance values of positive (presence of anti-HIV drug) and negative (untreated) control wells included in each 96 well-plate. For determining effective concentration 50 % (EC50), test compounds were assayed across a range of concentrations. Percent inhibition data in function of drug concentration were processed by a statistical curve fitting software yielding a modeled curve from which EC50 was extrapolated.

Another experiment has as its system HIV-1 mutant M184V.
From the text: as §1

In the next experiment the test system is HIV-1 wild type pNL4-3.
From the text: as §1

The subject of a further experiment is HIV-1 mutant K103N.
From the text: as §1

Another experiment relates to HIV-1 mutant K65R.
From the text: as §1

For a further experiment, the system named is HIV-1 mutant M4.
From the text: as §1

SMILES strings stand for the structures. Counter-ions that a name gives are not always drawn.

The text below walks through data of patent publication EP2402357B1, “Analogs of 2',3'-dideoxy-3'-fluorothymidine 5'-monophosphate (FLTMP) for use in the treatment of infections caused by human HIV-1 strains” (priority 2010, dated 2012).

As to `Cc1cn([C@H]2C[C@H](F)[C@@H](COP(=O)(O)O)O2)c(=S)[nH]c1=O` [Example 2-SFLTMP, 1-(2-deoxy-3-fluoro-β-D-ribofuranosyl)-2-thiothymine 5'-monophosphate disodium salt], the EC50 is 2850 nM in the experiment on HIV-1 mutant GQ (MDR); 144 nM with HIV-1 mutant M184V; 224 nM in the experiment with HIV-1 wild type pNL4-3; 114 nM in the experiment with HIV-1 mutant K103N; 504 nM in the experiment with HIV-1 mutant K65R; 392 nM in the experiment on HIV-1 mutant M4. The EC90 was found to be 4530 nM in the experiment on HIV-1 mutant GQ (MDR); 3260 nM in the experiment with HIV-1 mutant M184V; 2580 nM in the experiment on HIV-1 wild type pNL4-3; 978 nM in the experiment on HIV-1 mutant K103N; 4340 nM in the experiment with HIV-1 mutant K65R; 3680 nM with HIV-1 mutant M4.
For the molecule `Cc1cn([C@H]2C[C@H](F)[C@@H](COP(=O)(O)O)O2)c(=O)[nH]c1=S` [Example 4-SFLTMP, 1-(2-deoxy-3-fiuoro-β-D-ribofuranosyl)-4-thiothymine 5'-monophosphate disodium salt], the EC50 amounted to 48 nM in the experiment on HIV-1 mutant GQ (MDR); 43 nM in the experiment with HIV-1 mutant M184V; 24 nM in the experiment on HIV-1 wild type pNL4-3; 11 nM with HIV-1 mutant K103N; 96 nM in the experiment with HIV-1 mutant K65R; 31 nM with HIV-1 mutant M4. For the same molecule, the EC90 was determined as 1800 nM with HIV-1 mutant GQ (MDR); 425 nM in the experiment with HIV-1 mutant M184V; 166 nM with HIV-1 wild type pNL4-3; 50 nM with HIV-1 mutant K103N; 338 nM in the experiment with HIV-1 mutant K65R; 381 nM with HIV-1 mutant M4.
For `Cc1cn([C@H]2C[C@H](F)[C@@H](CO)O2)c(=O)[nH]c1=O` [FLT, 2',3'-Dideoxy-3'-fluorothymidine], the EC50 in the experiment on HIV-1 mutant GQ (MDR) came out at 131 nM; with HIV-1 mutant M184V, 27 nM; in the experiment on HIV-1 wild type pNL4-3 it was 21 nM; in the experiment on HIV-1 mutant K103N it was 18 nM; in the experiment with HIV-1 mutant K65R it was 32 nM; with HIV-1 mutant M4, 16 nM. Also, the concentration for an effect of 90% (EC90) in the experiment on HIV-1 mutant GQ (MDR) is 1300 nM; in the experiment with HIV-1 mutant M184V, 119 nM; in the experiment on HIV-1 wild type pNL4-3, 210 nM; in the experiment with HIV-1 mutant K103N it was 71 nM; with HIV-1 mutant K65R it was 96 nM; with HIV-1 mutant M4, 118 nM.
